# According to patent US11214803B2, “Modulators of YAP1 expression” (Ionis Pharmaceuticals, Inc., priority 2019, dated 2022):
# Strand notation (5' to 3'): a small letter for the sugar, then the base; units joined by * are phosphorothioate-linked, units joined directly phosphodiester-linked; [ ] holds rarer units or linkages, { } end groups; capitals alone tell only the bases. k = constrained ethyl (cEt); [5mC] = 5-methylcytosine; d = 2'-deoxy (DNA)
# Assays:
# [1] = Tolerability in Balb/c mice, plasma chemistry markers (Example 11); type: in vivo; settings: 50 mg/kg subcutaneously twice a week for four weeks
# Method in brief: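 Male Balb/c mice aged 4-6 weeks received 50 mg/kg modified oligonucleotide subcutaneously twice weekly for four weeks (8 doses), with a PBS control group. Plasma chemistry markers were assessed after euthanasia on day 26, 24 hours after the final dose.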
# [2] = Tolerability in Balb/c mice, body and organ weights (Example 10); type: in vivo; settings: 50 mg/kg subcutaneously twice a week for four weeks, end of study
# Protocol: (§1) Groups of male Balb/c mice at 4-6 weeks of age (obtained from Taconic) were injected subcutaneously twice a week for four weeks (for a total of 8 treatments) with 50 mg/kg of modified oligonucleotides. One group of male Balb/c mice was injected with PBS. Mice were euthanized on day 26 post start of treatment (24 hours following the final administration).
# Body weights of Balb/c mice were measured at the end of the study, and the average body weight for each group is presented in the table below. Modified oligonucleotides that caused any changes in organ weights outside the expected range for modified oligonucleotides were excluded from further studies.
# [3] = Tolerability in Balb/c mice, plasma chemistry markers (Example 10); type: in vivo; settings: male Balb/c mice, 50 mg/kg subcutaneously twice a week for four weeks, day 26
# Protocol: Balb/c mice were treated with modified oligonucleotides selected from studies described above and evaluated for changes in the levels of various plasma chemistry markers.
# as §1
# [4] = Tolerability in CD-1 mice, body and organ weights (Example 15); type: in vivo; settings: male CD-1 mice, 50 mg/kg s.c. twice a week for four weeks (8 treatments), end of study (day 26)
# Protocol: Groups of four male CD-1 mice at 4-5 weeks of age (obtained from Charles River) were injected subcutaneously twice a week for four weeks (for a total of 8 treatments) with 50 mg/kg of modified oligonucleotides. One group of male CD-1 mice was injected with PBS. Mice were euthanized on day 26 post start of treatment (24 hrs following the final administration).
# Body weights of CD-1 mice were measured at the end of the study, and the average body weight for each group is presented in the table below. Modified oligonucleotides that caused any changes in organ weights outside the expected range for modified oligonucleotides were excluded from further studies.
# [5] = Tolerability in Balb/c mice, plasma chemistry markers (Example 12); type: in vivo; settings: 50 mg/kg subcutaneously twice a week for four weeks
# [6] = Tolerability in Balb/c mice, body and organ weights (Example 12); type: in vivo; settings: male Balb/c mice, 50 mg/kg s.c. twice a week for four weeks (8 treatments), end of study (day 26)
# [7] = test system: subcutaneous DEN carcinomas; test: Tumor volume in DEN-HCC model, in combination with a-PD1 antibody (Example 49); type: in vivo, C57BL/6 mice; settings: for Average Tumor Volume: DEN-HCC subcutaneous model, C57BL/6 mice
# Protocol: N-nitrosodiethylamine (DEN) is administered at 25 mg/kg into 15 day old C57/BL6 mice. Carcinomas form 6 months post injection. After formation, carcinomas were then dissected from the liver and passaged subcutaneously into C57BL/6 male mice at 4-6 weeks of age to establish a subcutaneous model. For this experiment, mice were passaged with P8 subcutaneously established DEN carcinomas, rendering P9 for the duration of the experiment. Subcutaneous carcinomas are found to form at 4-6 weeks post implantation. Modified oligonucleotides 792169 (control compound) and 715491 (YAP-1 targeting modified oligonucleotide) were treated subcutaneously into groups of 7-8 mice at 10 mg/kg/week 5 times a week for 11 weeks (total of 55 doses). The PBS-only treated group and the control group were treated 5 times a week for 4 weeks (total of 20 doses). α-PD1 antibody (BioXCell) was treated intraperitoneally at 10 mg/kg/week twice a week for 4 weeks (total of 8 doses). F.D. refers to mice that were sacrificed because their tumor volume became too large.
substance,measurement,setting,value
715487 (kA*kT*kT*dA*d[5mC]*dT*dT*d[5mC]*dA*dT*dA*dG*d[5mC]*kT*kT*kA) [compound 715487],ALT,[1],59 U/L
same,AST,[1],81 U/L
same,BUN,[1],16 mg/dL
same,TBIL,[1],0.18 mg/dL
same,Kidney weight,[2],0.36 g
same,Liver weight,[2],1.24 g
same,Spleen weight,[2],0.14 g
same,body weight,[2],23 g
same,ALT (U/L),[3],79 U/L
same,AST (U/L),[3],96 U/L
same,TBIL,[3],0.13 mg/dL
same,Kidney weight,[4],0.59 g
same,Liver weight,[4],2.24 g
same,Spleen weight,[4],0.21 g
same,body weight,[4],41 g
"958499 (ATTAGAGTATGTGGCA; 3-10-3 cEt gapmer, further chemistry not given here) [compound 958499]",ALT,[5],142 U/L
same,AST,[5],146 U/L
same,BUN,[5],26 mg/dL
same,TBIL,[5],0.17 mg/dL
same,Kidney weight,[6],0.32 g
same,Liver weight,[6],1.44 g
same,Spleen weight,[6],0.14 g
same,body weight,[6],23 g
"CGCCGATAAGGTACAC (cEt gapmer, phosphorothioate backbone, further chemistry not given here) [ION 792169, reference compound]",Average Tumor Volume,[7]; day 1 on treatment,354 mm3
same,Average Tumor Volume,[7]; day 5 on treatment,376 mm3
same,Average Tumor Volume,[7]; day 8 on treatment,414 mm3
same,Average Tumor Volume,[7]; day 11 on treatment,523 mm3
same,Average Tumor Volume,[7]; day 15 on treatment,604 mm3
same,Average Tumor Volume,[7]; day 18 on treatment,633 mm3
same,Average Tumor Volume,[7]; day 23 on treatment,773 mm3
same,Average Tumor Volume,[7]; day 25 on treatment,864 mm3
same,Average Tumor Volume,[7]; day 28 on treatment,802 mm3
same,Average Tumor Volume,[7]; day 31 on treatment,F.D.
same,Average Tumor Volume,[7]; day 35 on treatment,F.D.
same,Average Tumor Volume,[7]; day 38 on treatment,F.D.
same,Average Tumor Volume,[7]; day 43 on treatment,F.D.
same,Average Tumor Volume,[7]; day 45 on treatment,F.D.
same,Average Tumor Volume,[7]; day 49 on treatment,F.D.
same,Average Tumor Volume,[7]; day 54 on treatment,F.D.
same,Average Tumor Volume,[7]; day 58 on treatment,F.D.
same,Average Tumor Volume,[7]; day 61 on treatment,F.D.
same,Average Tumor Volume,[7]; day 65 on treatment,F.D.
same,Average Tumor Volume,[7]; day 68 on treatment,F.D.
same,Average Tumor Volume,[7]; day 72 on treatment,F.D.
same,Average Tumor Volume,[7]; day 75 on treatment,F.D.
same,Average Tumor Volume,[7]; day 79 on treatment,F.D.
same,tumor volume (outcome in words),"[7]; subcutaneous DEN carcinomas in C57BL/6 male mice, 10 mg/kg/week, oligonucleotide subcutaneously, antibody intraperitoneally",sacrificed before the end of the experiment because their tumor volume became too large
